Reference: publication PMC11447708, “Comprehensive Exploration of Bromophenol Derivatives: Promising Antibacterial Agents against SA and MRSA” (ACS Omega, 2024)
pIC50: −log10 of the molar value. ≈ marks a conversion by molar mass, not a printed value. Like-named read-outs stand apart in the source and are kept apart here.

What was measured:
MRSA = test: agar well diffusion, zone of inhibition; format: cell-based, Staphylococcus aureus; conditions: for Diameter of zone inhibition on MRSA: Supplement S4, antibiotic standards; for inhibition zone diameter MRSA: concentration (μg): 20 for 1-3, 10 for ampicillin and tobramycin, 30 for tetracycline
Description: Staphylococcus aureus ATCC 2793, Pseudomonas aeruginosa ATCC 27853, and P. aeruginosa PA14 were activated, cultured, and stored in a refrigerator at −25 °C in the Laboratory of Biotechnology, Faculty of Chemical, Da Nang University of Science and Technology, The University of Da Nang. The MRSA antibiotic-resistant strain was isolated, identified,[17] and kindly provided by Dr. Ngo Thai Bich Van, Faculty of Chemical, Da Nang University of Science and Technology, The University of Da Nang.
(§1) The susceptibility test was measured in vitro by employing the agar well diffusion method.[20]S. aureus ATCC 2793 and P. aeruginosa ATCC 27853 strains were used in this experiment. A suspension of the test organism was prepared in nutrient broth by overnight culture for 24 h at 37 °C and 7.0 pH. The agar plate surface was inoculated by spreading a volume of the microbial inoculum over the entire agar surface. Then, a hole with a diameter of 6 to 8 mm was punched aseptically with a sterile tip, and a volume (20 μL) of the tested solution at the desired concentration was introduced into the well. Then, agar plates were incubated under suitable conditions depending upon the test microorganism. After incubation, the plates were examined and the diameters of the zone of complete inhibition were observed.

P. aeruginosa [1] = test: microbroth dilution assay (MIC, resazurin); format: cell-based, Pseudomonas aeruginosa; conditions: 18 h, 37 °C; for MIC: Pseudomonas aeruginosa
Description: (§2) The antibacterial efficacy of the chosen compounds was assessed through the microbroth dilution assay conducted in 96-well culture plates.[21] A stock solution with a concentration of 20 mg/mL was prepared in dimethyl sulfoxide (DMSO). Subsequently, autoclaved nutrient broth (100 μL) was introduced into the culture plate wells, with the initial row of the microtiter plate receiving 100 μL of the test material. 2-fold serial dilutions of the test compounds were then meticulously executed. To serve as an indicator, 20 μL of 2× resazurin solution was added to each well. Finally, 10 μL of the bacterial suspension was incorporated into each well, yielding a final concentration of 5 × 10^6 CFU/mL. The experiment was conducted in duplicate, and the plates were incubated at 37 °C. After 18 h, the plates were scrutinized for any change in color indicative of bacterial growth.

P. aeruginosa ATCC 27853 [2] = test: agar well diffusion, zone of inhibition; format: cell-based, Pseudomonas aeruginosa; conditions: for Diameter of zone inhibition on PA: Supplement S4, antibiotic standards; for inhibition zone diameter P. aeruginosa: concentration (μg): 20 for 1-3, 10 for ampicillin and tobramycin, 30 for tetracycline
Description: as §1

S. aureus [3] = test: microbroth dilution assay (MIC, resazurin); format: cell-based, Staphylococcus aureus; conditions: 18 h, 37 °C; for MIC: Staphylococcus aureus
Description: as §2

S. aureus ATCC 2793 = test: agar well diffusion, zone of inhibition; format: cell-based, Staphylococcus aureus; conditions: for Diameter of zone inhibition on SA: Supplement S4, antibiotic standards; for inhibition zone diameter S. aureus: concentration (μg): 20 for 1-3, 10 for ampicillin and tobramycin, 30 for tetracycline
Description: as §1

HEK-293 cells = test: AlamarBlue cell viability assay; format: cell-based; conditions: Homo sapiens, HEK293, 24 h exposure
Description: HEK-293 cells were cultured in DMEM containing 25 mM glucose, 10% heat-inactivated fetal bovine serum (FBS), 100 U/mL penicillin, and 100 μg/mL streptomycin. Cells were incubated at 37 °C in a humidified atmosphere containing 95% air and 5% CO2.
[…] Untreated groups were set as the control (100% cell viability). On the 24th, cells were treated with the Invitrogen AlamarBlue cell viability reagent for an additional 2 h. Optical density (OD) values (at wavelengths of 570 and 600 nm) were then recorded. The percentage of cell viability was calculated according to the protocol provided by the manufacturer.

P. aeruginosa ATCC 27853 [4] = test: swarming motility; format: cell-based, Pseudomonas aeruginosa; conditions: 24 h at 37 °C; for migration distance (mm): swarming, control 100 mm
Description: The analysis was performed in Petri dishes with the LB minimal medium supplemented with 0.2% glucose and 0.5% agar, as described by Kearns.[24] Tested compounds were added to the motility agar at the desired concentration. Aliquots (1.0 μL) were taken from P. aeruginosa ATCC 27853 overnight cultures and spotted in the center of each well, and the migration zones were measured after 24 h of incubation at 37 °C. The inhibition rate was calculated as follows: [drawing 1] where Dtreated and Dcontrol are the migration distances in the treated and control samples, respectively.

[5] = test system: pyocyanin production in the PA14 strain; test: pyocyanin inhibition assay (chloroform extraction); format: cell-based, Pseudomonas aeruginosa; conditions: half of the MIC, 12 h, mean ± SD, n = 3
Description: Following the specified incubation period, the cultures underwent centrifugation at 10,000 rpm for 10 min, leading to the collection of the supernatant. Subsequently, 3 mL of chloroform was added to 5 mL of the supernatant, and the mixture was vortexed for 20 s. After centrifugation at 5000 rpm for 10 min, the resulting blue layer at the bottom was transferred to a new tube. To each tube, 2 mL of 0.2 M HCl was added and vortexed for 20 s. The sample underwent subsequent centrifugation for 2 min at 5000 rpm, and 1 mL of the resulting pink layer was transferred to cuvettes. A blank was established using 0.2 M HCl. Spectrophotometric measurements were carried out at 520 nm.

P. aeruginosa ATCC 27853 [6] = test: biofilm formation inhibition, crystal violet assay; format: cell-based, Pseudomonas aeruginosa; conditions: mean ± SD, n = 3
Description: Biofilm formation was evaluated utilizing the crystal violet assay.[22] The P. aeruginosa ATCC 27853 strain was used in this experiment. The bacterial attachment was initiated by inoculating the culture medium with approximately 10^7 CFU/mL in polystyrene 96-well plates, followed by incubation at 37 °C for 2 h in aerobic conditions. Subsequent to the attachment phase, the medium was carefully aspirated, and the 96-well plates were rinsed with phosphate-buffered saline (PBS) (pH 7.0) to eliminate unattached cells. The fresh medium, along with tested compounds, was then introduced to assess the inhibitory impact on biofilm formation. Following an 18 h incubation at 37 °C, a crystal violet (CV) assay was conducted. The well plate was washed with PBS to eliminate unattached cells, and a 1% CV solution was added, allowing for a 30 min incubation at room temperature. After this period, the well plate underwent three PBS washes, and absolute ethanol was added, incubating for 15 min. Following the transfer of the stained solution to a new well plate, the absorbance was measured at 595 nm.

S. aureus [7] = test system: S. aureus; set-up: method as in Liu et al.[7]; conditions: bromo benzenediol derivatives; ref Liu et al.[7]; cited from earlier work
P. aeruginosa [8] = test system: P. aeruginosa; set-up: method as in Liu et al.[7]; conditions: bromo benzenediol derivatives; ref Liu et al.[7]; cited from earlier work
[9] = test system: Staphylcoccus epidermidis; set-up: method as in Liu et al.[7]; conditions: ref Liu et al.[7]; cited from earlier work

| MIC P. aeruginosa (P. aeruginosa [1]) | MIC S. aureus (S. aureus [3]) | SMILES | Diameter of zone inhibition on MRSA (MRSA) | inhibition zone diameter MRSA (MRSA) | MIC (P. aeruginosa [1]) | Diameter of zone inhibition on PA (P. aeruginosa ATCC 27853 [2]) | inhibition zone diameter P. aeruginosa (P. aeruginosa ATCC 27853 [2]) | MIC (S. aureus [3]) | Diameter of zone inhibition on SA (S. aureus ATCC 2793) | inhibition zone diameter S. aureus (S. aureus ATCC 2793) | pIC50 (HEK-293 cells) | swarming motility inhibition rate (%) (P. aeruginosa ATCC 27853 [4]) | migration distance (mm) (P. aeruginosa ATCC 27853 [4]) | pyocyanin production inhibition (%) [5] | biofilm formation inhibition (%) (P. aeruginosa ATCC 27853 [6]) | MIC S. aureus (S. aureus [7]) | MIC P. aeruginosa (P. aeruginosa [8]) | MIC on Staphylcoccus epidermidis [9] |
| --- | --- | --- | --- | --- | --- | --- | --- | --- | --- | --- | --- | --- | --- | --- | --- | --- | --- | --- |
|  |  | CC(=O)c1c(O)ccc(Br)c1O [compound 2, 3-Bromo-2,6-dihydroxyacetophenone] |  | 30 mm | 780 µg/mL (≈ 3380 µM) |  | 1 mm | 12 µg/mL (≈ 51.9 µM) |  | 29 mm | 4.51 | 86.5% | 13.5 mm | 52% | 14% |  |  |  |
|  |  | Oc1cc(Cc2cc(O)c(O)c(Br)c2Br)c(Br)c(Br)c1O [compound 7, 4,4′-methylenebis(5,6-dibromo-1,2-benzenediol)] |  |  |  |  |  |  |  |  |  |  |  |  |  | 140 µg/mL (≈ 256 µM) | 140 µg/mL (≈ 256 µM) |  |
|  |  | CC(=O)c1cc(Br)c(O)c(Br)c1O [compound 3, 3,5-Dibromo-2,4-dihydroxyacetophenone] |  | 20 mm | 780 µg/mL (≈ 2520 µM) |  | 1 mm | 390 µg/mL (≈ 1260 µM) |  | 12 mm | < 4.49 | 86.5% | 13.5 mm | 38% | 14% |  |  |  |
| 15 µg/mL (≈ 32.1 µM) | 25 µg/mL (≈ 53.5 µM) | NC[C@H]1O[C@H](O[C@H]2[C@H](O)[C@@H](O[C@H]3O[C@H](CO)[C@@H](O)[C@H](N)[C@H]3O)[C@H](N)C[C@@H]2N)[C@H](N)C[C@@H]1O [tobramycin] | 5.5 mm | 12 mm | 15 µg/mL (≈ 32.1 µM) | 5.5 mm | 15 mm | 25 µg/mL (≈ 53.5 µM) |  | 15 mm |  |  |  |  |  |  |  |  |
| inactive | 10 µg/mL (≈ 28.6 µM) | CC1(C)S[C@@H]2[C@H](NC(=O)[C@H](N)c3ccccc3)C(=O)N2[C@H]1C(=O)O [ampicillin] | 15.5 mm | 18 mm |  | 0 mm | no observable zone diameter | 10 µg/mL (≈ 28.6 µM) | 14.5 mm | 16 mm |  |  |  |  |  |  |  |  |
|  |  | Oc1cc(COCc2cc(O)c(O)c(Br)c2Br)c(Br)c(Br)c1O [compound 8, bis(2,3-dibromo-4,5-dihydroxybenzyl)ether] |  |  |  |  |  |  |  |  |  |  |  |  |  | 70 µg/mL (≈ 121 µM) | 70 µg/mL (≈ 121 µM) | 35 µg/mL (≈ 60.6 µM) |

| SMILES | MIC P. aeruginosa (P. aeruginosa [1]) | MIC S. aureus (S. aureus [3]) | Diameter of zone inhibition on MRSA (MRSA) | inhibition zone diameter MRSA (MRSA) | MIC (P. aeruginosa [1]) | Diameter of zone inhibition on PA (P. aeruginosa ATCC 27853 [2]) | inhibition zone diameter P. aeruginosa (P. aeruginosa ATCC 27853 [2]) | MIC (S. aureus [3]) | Diameter of zone inhibition on SA (S. aureus ATCC 2793) | inhibition zone diameter S. aureus (S. aureus ATCC 2793) | pIC50 (HEK-293 cells) | swarming motility inhibition rate (%) (P. aeruginosa ATCC 27853 [4]) | migration distance (mm) (P. aeruginosa ATCC 27853 [4]) | pyocyanin production inhibition (%) [5] | biofilm formation inhibition (%) (P. aeruginosa ATCC 27853 [6]) | MIC S. aureus (S. aureus [7]) | MIC P. aeruginosa (P. aeruginosa [8]) | MIC on Staphylcoccus epidermidis [9] |
| --- | --- | --- | --- | --- | --- | --- | --- | --- | --- | --- | --- | --- | --- | --- | --- | --- | --- | --- |
| CN(C)[C@@H]1C(O)=C(C(N)=O)C(=O)[C@@]2(O)C(O)=C3C(=O)c4c(O)cccc4[C@@](C)(O)[C@H]3C[C@@H]12 [tetracycline] | 70 µg/mL (≈ 158 µM) | 30 µg/mL (≈ 67.5 µM) | 10.25 mm | 12 mm | 70 µg/mL (≈ 158 µM) | 10.5 mm | 10 mm | 30 µg/mL (≈ 67.5 µM) | 9.75 mm | 14 mm |  |  |  |  |  |  |  |  |
